Assay results as given in PubChem BioAssay AID1996.
≈ marks a conversion by molar mass, not a printed value.

Conditions: buffer; pH 7.4; 200.0 µM

Compared with `Cc1ccc(C)n1-c1ccc(-c2ccnc(N)n2)cc1`, `COc1ccc(N2CCN(C(=O)Cc3ccc(C)cc3)CC2)cc1` is 2-fold higher in solubility kinetic: 22.5 µg/mL (≈ 85.1 µM) for the first, 43.9 µg/mL (≈ 135 µM) for the second.

`O=C(COC(=O)CNC(=O)c1ccccc1F)NCC(F)(F)F` and `CC(NC(=O)CNC(=O)c1ccccc1Br)c1cccs1` (stereo not given) cannot be ordered by solubility kinetic: over 50.4 µg/mL for the first, over 55.1 µg/mL for the second.

Compared with `O=C(C1CCC1)N1CCN(c2ccc(Cl)cc2)CC1`, `O=C(CN1CCN(c2ccccc2)CC1)NCc1ccc(F)cc1` is higher in solubility kinetic: 36.4 µg/mL (≈ 131 µM) for the first, over 49.1 µg/mL for the second.

Compared with `CS(=O)(=O)N1CCCC(C(=O)Nc2ccccc2)C1` (stereo not given), `O=C(Nc1ccccc1NS(=O)(=O)c1ccc(F)cc1)C1CCC1` is 2-fold lower in solubility kinetic: 42.2 µg/mL (≈ 149 µM) for the first, 21.1 µg/mL (≈ 60.6 µM) for the second.

`CCc1ccccc1N1CC(C(=O)Nc2nccs2)CC1=O` (stereo not given) and `O=C(NCCCN1CCCC1=O)Nc1ccccc1Cl` cannot be ordered by solubility kinetic: 45.2 µg/mL (≈ 143 µM) for the first, over 44.4 µg/mL for the second.

`O=C(O)c1ccc(NC(=O)c2cc3ccccc3o2)cc1` and `O=C(c1cc2ccccc2o1)N1CCN(c2ncccn2)CC1` cannot be ordered by solubility kinetic: over 42.2 µg/mL for the first, over 46.3 µg/mL for the second.

Going from `CSc1ncc(Cl)c(C(=O)Nc2c(C)cccc2C)n1` to `Cc1ccc(S(=O)(=O)/N=C(/Nc2c(C)cccc2C)c2ccccc2)cc1`, the solubility kinetic rises from 2.3 µg/mL (≈ 7.47 µM) to 7.3 µg/mL (≈ 19.3 µM) (3.2-fold).

`C/C(Cl)=C/Cn1c(N2CCCC2)nc2c1c(=O)[nH]c(=O)n2C` and `COc1ccc2cc(C(=O)N3CCN(C)CC3)[nH]c2c1` cannot be ordered by solubility kinetic: 45 µg/mL (≈ 139 µM) for the first, over 41 µg/mL for the second.

First: COc1ccc(C(O)(CCN2CCOCC2)c2ccccc2)cc1 (stereo not given)
Second: Cc1ccc2nc(-c3ccccc3)c(CN3CCOCC3)n2c1
The solubility kinetic of the first is lower: 41.1 µg/mL (≈ 126 µM) for the first, over 46.1 µg/mL for the second.

Compared with `CCOC(=O)C1CCCCN1Cc1ccc(-c2ccccc2)cc1` (stereo not given), `O=C(c1ccc(F)cc1)C1CCN(Cc2ccc(F)cc2)CC1` is 24-fold higher in solubility kinetic: 1.5 µg/mL (≈ 4.64 µM) for the first, 36.2 µg/mL (≈ 115 µM) for the second.

Going from `NC(=O)c1ccc(N=C2C(=O)Nc3ccc([N+](=O)[O-])cc32)cc1` to `O=C1CN=C(c2cc([N+](=O)[O-])ccc2Cl)c2cc([N+](=O)[O-])ccc2N1`, the solubility kinetic falls from 13.1 µg/mL (≈ 42.2 µM) to 1.6 µg/mL (≈ 4.44 µM) (8.2-fold).

`C[C@H](NC(N)=O)C(=O)Nc1ccc2c(c1)OCO2` and `Nc1cc(N)nc(SCC(=O)Nc2ccc3c(c2)OCO3)n1` are within 1.5-fold of each other in solubility kinetic: 32.9 µg/mL (≈ 131 µM) for the first, 47.2 µg/mL (≈ 148 µM) for the second.

`Nc1ccc(-c2cnc[nH]2)cc1[N+](=O)[O-]` and `CCOC(=O)CC(c1ccc([N+](=O)[O-])cc1)n1c(C)ccc1C` (stereo not given) cannot be ordered by solubility kinetic: over 30.6 µg/mL for the first, 32.9 µg/mL (≈ 104 µM) for the second.

First: CC(C)(C)c1ccc(/C=C/C(=O)Nc2cccnc2)cc1
Second: COc1ccc(S(=O)(=O)Nc2cccnc2)c(C)c1C
The solubility kinetic of the first is 20-fold lower: 1 µg/mL (≈ 3.57 µM) for the first, 19.8 µg/mL (≈ 67.7 µM) for the second.

First: CC(C)c1ccccc1NC(=O)c1ccc2ncsc2c1
Second: Cc1cc(Nc2ccc(C)c(C)c2)c2ccccc2n1
The solubility kinetic of the first is lower: 21 µg/mL (≈ 70.9 µM) for the first, over 39.4 µg/mL for the second.

Going from `Cc1ccc(S(=O)(=O)C(C#N)=C2N(C)c3ccccc3N2C)cc1` to `CC(=O)Nc1cccc(OCCCNS(=O)(=O)c2ccc(C#N)cc2)c1`, the solubility kinetic rises from 7.9 µg/mL (≈ 23.3 µM) to over 56 µg/mL.

Compared with `Cc1cc(Br)ccc1NC(=S)NCCc1ccccc1`, `Cc1ccc(C(=O)NCCNC(=O)Cc2ccccc2)cn1` is higher in solubility kinetic: 8.6 µg/mL (≈ 24.6 µM) for the first, over 44.6 µg/mL for the second.

`CCCCn1c(CCl)nc2cc(S(=O)(=O)N3CCOCC3)ccc21` and `Cn1cnc(S(=O)(=O)NC2CCN(Cc3c(F)cccc3Cl)CC2)c1` cannot be ordered by solubility kinetic: over 55.8 µg/mL for the first, over 58 µg/mL for the second.

Compared with `CCOC(=O)c1sc(-c2ccc(Cl)cc2Cl)nc1O`, `CC1CC1C(=O)Nc1nc2ccc(Cl)cc2s1` (stereo not given) is 47-fold lower in solubility kinetic: 28.2 µg/mL (≈ 88.6 µM) for the first, 0.6 µg/mL (≈ 2.25 µM) for the second.

First: CC(C)NCC#CCOc1ccc(Cl)cc1.O=C(O)C(=O)O
Second: O=C(NNC(=O)c1ccccn1)c1ccc(OC(F)F)cc1
The solubility kinetic of the first is lower: 42.6 µg/mL for the first, over 46.1 µg/mL for the second.

`O=C(NCc1ccco1)c1nn2cccnc2c1Cl` and `O=C(NCc1ccco1)C(=S)N1CCCC1` cannot be ordered by solubility kinetic: over 41.5 µg/mL for the first, over 35.7 µg/mL for the second.

`N#CC1(NC(=O)Cn2cc(C(F)(F)F)ccc2=O)CCCC1` and `N#CC1(P(=O)(c2ccccc2)c2ccccc2)CCCC1` cannot be ordered by solubility kinetic: over 47 µg/mL for the first, over 44.3 µg/mL for the second.

First: Cc1ccc(NC(=O)c2ccc(OCc3c(C)noc3C)cc2)cc1C
Second: Cc1ccc(NC2CCCN(C(=O)c3cccnc3)C2)cc1C (stereo not given)
The solubility kinetic of the first is lower: 6.7 µg/mL (≈ 19.1 µM) for the first, over 46.4 µg/mL for the second.

Compared with `COc1ccccc1N1CCN(c2nccc(C)n2)CC1`, `CN1CCN(CC(=O)N2c3ccccc3Sc3ccccc32)CC1` is higher in solubility kinetic: 40.3 µg/mL (≈ 142 µM) for the first, over 50.9 µg/mL for the second.

Compared with `Clc1ccc2c(c1)Nc1ccccc1CC2`, `CSc1ccc(Cl)c(C(=O)N2CCOc3ccccc32)c1` is higher in solubility kinetic: under 0.5 µg/mL for the first, 13.5 µg/mL (≈ 42.2 µM) for the second.

Compared with `CCn1cc(C(=O)NCCC(=O)NCCCO)c(=O)c2cc3c(cc21)OCO3`, `Cc1ccc(C(=O)N2CCN(Cc3ccc4c(c3)OCO4)CC2)c(Cl)c1` is lower in solubility kinetic: over 58.4 µg/mL for the first, 54.4 µg/mL (≈ 146 µM) for the second.

First: c1ccc(CC(NCc2ccco2)c2ccccc2)cc1 (stereo not given)
Second: O=C(NCCNC(=O)c1ccccc1Cl)c1ccco1
The solubility kinetic of the first is 2.9-fold lower: 13.6 µg/mL (≈ 49 µM) for the first, 39.7 µg/mL (≈ 136 µM) for the second.

Going from `COc1cc(C(=O)NC(=S)N2CCCCCC2)cc(OC)c1OC` to `COc1ccc(CN2CCS(=O)(=O)CC2)cc1OC`, the solubility kinetic rises from 15.8 µg/mL (≈ 44.8 µM) to over 42.8 µg/mL.

`COc1cccc2c1Oc1cc([N+](=O)[O-])cc(N(C)C(C)=O)c1C=C2` and `Cc1cccc(NS(=O)(=O)c2ccc3[nH]c(=O)oc3c2)c1C` are within 1.5-fold of each other in solubility kinetic: 38.2 µg/mL (≈ 112 µM) for the first, 41.9 µg/mL (≈ 132 µM) for the second.

Going from `O=C(CCCc1nc2ccccc2s1)Nc1ccccc1` to `COC(=O)CCc1nc2cc(Cl)ccc2n(Cc2ccccc2)c1=O`, the solubility kinetic falls from 9.9 µg/mL (≈ 33.4 µM) to 1.4 µg/mL (≈ 3.92 µM) (7.1-fold).

`Cc1cc(OCc2cccc(Cl)c2)c(C)cc1CN1CCOCC1` and `Cc1cc(C)cc(OCC(=O)Nc2nc(-c3ccccn3)cs2)c1` are within 1.5-fold of each other in solubility kinetic: 1 µg/mL (≈ 2.89 µM) for the first, 1.2 µg/mL (≈ 3.54 µM) for the second.

`NC(=O)C1CC(=O)N(CCc2ccc(F)cc2)C1` (stereo not given) and `CN1CCCC(OC(=O)c2ccc(C#N)cc2)C1.Cl` (stereo not given) cannot be ordered by solubility kinetic: over 37.5 µg/mL for the first, over 42.1 µg/mL for the second.

`COc1ccc(Cl)cc1C(=O)NC1=NCCS1` and `COCCNC(=O)c1cc2sccc2n1C` cannot be ordered by solubility kinetic: 38.6 µg/mL (≈ 143 µM) for the first, over 35.7 µg/mL for the second.

First: CC(C)(CO)Nc1nc(Cl)nc(NC2CCCCC2)n1
Second: C=CCNc1nc(N)c([N+](=O)[O-])c(NC2CCCCC2)n1
The solubility kinetic of the first is 52-fold higher: 36.5 µg/mL (≈ 122 µM) for the first, 0.7 µg/mL (≈ 2.39 µM) for the second.

Compared with `N#Cc1cccc(NC(=O)COC(=O)C2CCC2)c1`, `O=C(COC(=O)COc1cc(Cl)c(Cl)cc1Cl)NC1CC1` is lower in solubility kinetic: over 38.7 µg/mL for the first, 23.6 µg/mL (≈ 66.9 µM) for the second.

Compared with `CCc1ccc2nc(N(CCN(C)C)C(=O)/C=C/c3cccs3)sc2c1.Cl`, `CCN(CCO)C(=O)c1ccc2oc(Cc3ccc(Cl)cc3)nc2c1` is higher in solubility kinetic: under 0.3 µg/mL for the first, 41.5 µg/mL (≈ 116 µM) for the second.

Compared with `Cc1ccc(C)c(C(=O)COC(=O)C(C)N2C(=O)C3C4CCC(C4)C3C2=O)c1` (stereo not given), `Cc1cc(C)c(C)c(S(=O)(=O)N[C@@H](C)C(=O)OCC(=O)NC2CCCC(C)C2C)c1C` (stereo not given in full) is 1.5-fold lower in solubility kinetic: 42 µg/mL (≈ 110 µM) for the first, 27.8 µg/mL (≈ 61.4 µM) for the second.

Compared with `CC(Sc1nc2ncc(Cl)cc2[nH]1)C(=O)Nc1ccc(C(N)=O)cc1` (stereo not given), `Cc1cc(Nc2ccc(F)c(F)c2)nc(-c2ccccc2O)n1` is lower in solubility kinetic: 9.3 µg/mL (≈ 24.7 µM) for the first, under 0.2 µg/mL for the second.

`O=C(NC1CCS(=O)(=O)C1)c1ccccc1Cl` (stereo not given) and `CN(C(=O)CSc1nc2ccccc2c(=O)n1-c1ccccc1Cl)C1CCS(=O)(=O)C1` (stereo not given) cannot be ordered by solubility kinetic: over 41.1 µg/mL for the first, 71.1 µg/mL (≈ 149 µM) for the second.

`CCOC(=O)CNC(=S)SC` and `COC(=O)c1ccc(N2C(=O)C3CC=CC(C)C3C2=O)cc1` (stereo not given) are within 1.5-fold of each other in solubility kinetic: 21.8 µg/mL (≈ 113 µM) for the first, 20 µg/mL (≈ 66.8 µM) for the second.

Going from `CC1NC(=O)NC1CCCCCC(=O)Nc1ccc(F)c(Cl)c1` (stereo not given) to `Cc1ccc2c(c1)=C/C(=C\c1c(O)[nH]c(=O)[nH]c1=O)C(=O)N=2`, the solubility kinetic falls from over 51.3 µg/mL to under 0.2 µg/mL.

`COCc1cc(=O)[nH]c(-c2ccccc2OC(F)(F)F)n1` and `OCc1ccccc1N=Cc1cccnc1` cannot be ordered by solubility kinetic: over 45 µg/mL for the first, over 31.8 µg/mL for the second.

Work on `O=C(CN1CC=C(c2ccccc2)CC1)NC(=O)NC1CCCCC1` yielded a solubility kinetic of 22.1 µg/mL (≈ 64.7 µM).
